The text below walks through data of US4298734A, “Diazaheterocyclopurines and triazolopyrimidines” (Mead Johnson & Company, priority 1979, dated 1981).

For data set [1], the system named is methacholine-induced bronchospasm in the rat. Description: Methacholine-induced bronchospasm (pulmonary ventilation pressure) in anesthetized rat. The format is in vivo. The note with it: intraduodenal, 50% inhibition of bronchospasm. An excerpt:
Brochodilator activity in vivo (Table XI, column 6) was estimated by determining the dose of test compound required to inhibit methacholine-induced brochospasm in the rat. […] For this test, pulmonary ventilation pressure (PVP) was the parameter measured using anesthetized animals.

Data set [2] deals with passive cutaneous anaphylaxis reaction (PCA) in the rat. The experiment in a line: Passive cutaneous anaphylaxis reaction (PCA) in the rat. The note with it: for ED50: oral; for inhibition in vivo at 25 mg/kg: oral dose 25 mg./kg., read-out: PCA, percent inhibition. The format is in vivo. On the procedure: Antiallergy activity in terms of ability to inhibit the immediate hypersensitivity reaction was measured by means of the passive cutaneous anaphylaxis reaction (PCA) in the rat (Table XI, column 7). The animals were passively sensitized by the intradermal injection of rat reagenic antiserum at various locations on the shaved back skin and 48 hours later the test drug was administered. This was followed by challenge at a predetermined interval, usually 15 minutes, by intravenous injection of egg albumin and Evans' blue dye. The dermal reaction at the sensitized site was evaluated and scored by measuring the diameter of the spot generated at the sensitized intradermal injection site. The values reported in the table are either ED50 values for the test compound in terms of mg./kg. of body weight administered orally, or percent inhibition of the dose specified in parentheses.

For data set [3], the system named is rats actively sensitized with egg albumin and B. pertussis vaccine. Description: Allergic bronchospasm in rats actively sensitized with egg albumin. The format is in vivo. The note with it: Bordetella pertussis; rat, oral, egg albumin challenge, PVP. As to the method: Antiallergy/bronchodilator studies (Table XI, column 8) were also conducted using rats which were actively sensitized with egg albumin and B. pertussis vaccine as for preparation of the reagenic antisera in the PCA test. Fifteen days following sensitization, the animals were prepared for measurement of PVP as for the methacholine-induced bronchospasm test, and changes in PVP in response to a standardized challenge of egg albumin following treatment with test drug were measured. The values reported in the table are ED50 values in terms of mg./kg. of body weight for the test compound administered orally.

The nature of data set [4]: Anti-allergy and bronchodilator action compared with aminophylline.
Data set [5] can be described thus: Anticholinergic action mediating bronchodilator activity.
The nature of data set [6]: Maximum non-toxic dose in mice. The conditions noted are these: mouse, in vivo, po; per os in mice. From the text:
Compounds of Formula I and Formula II are useful as bronchodilators, antiallergy agents in the inhibition of the immediate hypersensitivity reaction, as vasodilators, and as inhibitors of the enzyme phosphodiesterase. The invention includes processes for the treatment of mammals requiring bronchodilation, vasodilation, or having allergy with a non-toxic bronchodilator effective, vasodilator effective, or immediate hypersensitivity reaction inhibiting dose of one of these compounds. The compounds may be administered orally, parenterally, topically by inhalation, or rectally. Effective doses range from about 0.03 mg./kg. of body weight up to the maximum non-toxic dose which can be administered without undue side effects. Maximum non-toxic doses can be determined by standard pharmacologic techniques using mice. The value for the substance of Procedure 3 or 4, a preferred compound for anti-asthma use, is about 250 mg./kg. of body weight per os in mice.

For the compound `CC1(C)CN2C(=O)c3nc[nH]c3N(Cc3ccc(Cl)cc3)C2=N1` [Procedure 104], the ED50 was determined as 6.3 mg/kg in data set [1], 42.8 mg/kg in data set [2] and 3 mg/kg in data set [3]. Also, the “anti-allergy and bronchodilator action relative to aminophylline” value in data set [4] is “more potent than aminophylline in anti-allergy and bronchodilator action”.
Consider `Cc1nc2c([nH]1)C(=O)N1CCN=C1N2CCOc1ccccc1` [Procedure 58], for which the ED50 in data set [1] came to 0.81 mg/kg. The inhibition in vivo at 25 mg/kg in data set [2] is 29%. For the same compound, in data set [5], the anticholinergic action entry is on record as “anticholinergic action of a type which mediates improved bronchodilator activity”.
Consider `O=C1c2[nH]cnc2N(CCOc2ccccc2)C2=NCCN12` [Procedure 12], for which the ED50 in data set [1] was determined as 2.3 mg/kg. Further, the inhibition in vivo at 25 mg/kg in data set [2] came to 27%. For the same compound, the anticholinergic action result in data set [5] was “anticholinergic action of a type which mediates improved bronchodilator activity”.
For the compound `O=C1c2[nH]cnc2N(Cc2ccc(Cl)cc2)C2=NCCN12` [Procedure 3], the ED50 in data set [1] worked out at 5.2 mg/kg; in data set [2], 33.7 mg/kg; in data set [3], 2.9 mg/kg. The same compound showed an MTD in data set [6] of around 250 mg/kg.
